Values belong to the compound of their own block, whether it stands above or below them. Activity calls are given as the source filed them. Rule as the data show it, for most assays here: actives have a measured IC50 and inactives only a lower limit.
What was measured:
SUMO E1/E2 = SUMO E1/E2 (Homo sapiens, UniProt P63279+Q9UBE0+Q9UBT2); test: SAR analysis of SUMOylation using HTRF in an in-Vitro dose response assay. [Related pubchem assays (depositor defined):AID2006, AID2011, AID2018, AID2069, AID2658]; assay type: functional
Sequence of SUMO E1/E2 (Q9UBE0 whole entry): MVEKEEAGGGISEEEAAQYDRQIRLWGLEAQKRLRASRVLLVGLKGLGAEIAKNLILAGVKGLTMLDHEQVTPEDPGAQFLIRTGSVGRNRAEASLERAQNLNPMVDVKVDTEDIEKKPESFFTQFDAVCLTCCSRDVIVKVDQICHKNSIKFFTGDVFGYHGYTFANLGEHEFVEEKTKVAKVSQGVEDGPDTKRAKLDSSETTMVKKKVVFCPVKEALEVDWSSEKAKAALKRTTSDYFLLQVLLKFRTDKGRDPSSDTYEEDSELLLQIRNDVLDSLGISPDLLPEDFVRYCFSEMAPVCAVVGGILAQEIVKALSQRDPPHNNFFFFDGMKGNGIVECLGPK
Sequence of SUMO E1/E2 (Q9UBT2 whole entry): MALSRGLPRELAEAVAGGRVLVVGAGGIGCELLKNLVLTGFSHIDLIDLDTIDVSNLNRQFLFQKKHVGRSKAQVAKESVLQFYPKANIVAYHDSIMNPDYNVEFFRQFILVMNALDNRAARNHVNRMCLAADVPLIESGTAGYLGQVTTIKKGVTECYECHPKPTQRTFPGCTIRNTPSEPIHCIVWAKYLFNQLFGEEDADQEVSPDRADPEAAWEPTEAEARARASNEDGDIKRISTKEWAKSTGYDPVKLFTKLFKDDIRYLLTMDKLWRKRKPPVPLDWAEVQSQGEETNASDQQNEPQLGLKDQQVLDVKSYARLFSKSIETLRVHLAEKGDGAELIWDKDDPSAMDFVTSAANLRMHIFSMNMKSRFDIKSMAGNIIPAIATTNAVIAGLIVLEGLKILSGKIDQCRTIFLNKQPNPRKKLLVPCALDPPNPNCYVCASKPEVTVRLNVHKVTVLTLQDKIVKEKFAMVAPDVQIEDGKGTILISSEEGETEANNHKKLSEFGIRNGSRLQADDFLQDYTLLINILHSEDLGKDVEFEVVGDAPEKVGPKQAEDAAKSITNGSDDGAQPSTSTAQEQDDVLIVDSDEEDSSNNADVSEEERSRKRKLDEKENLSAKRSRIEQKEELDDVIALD
Sequence of SUMO E1/E2 (P63279 whole entry): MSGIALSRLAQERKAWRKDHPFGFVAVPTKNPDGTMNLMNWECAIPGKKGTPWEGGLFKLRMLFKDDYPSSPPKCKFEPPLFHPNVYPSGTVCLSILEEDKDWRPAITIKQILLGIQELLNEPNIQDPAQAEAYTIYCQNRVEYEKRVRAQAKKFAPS

[1] = molecular target: Sphingosine 1-phosphate receptor 3 (Homo sapiens, UniProt Q99500); test: Late stage counterscreen assay for S1P4 antagonists: Fluorescence dose response cell-based screening assay for antagonists of the Sphingosine 1-Phosphate Receptor 3 (S1P3). [Related pubchem assays (depositor defined):AID1510, AID1524, AID1692, AID1853, AID2332, AID489009, AID489017]; assay type: functional
[2] = molecular target: Sphingosine 1-phosphate receptor 5 (Homo sapiens, UniProt Q9H228); test: Late stage counterscreen assay for S1P4 antagonists: Fluorescence dose response cell-based screening assay for antagonists of the Sphingosine 1-Phosphate Receptor 5 (S1P5). [Related pubchem assays (depositor defined):AID1510, AID1524, AID1692, AID1853, AID2332, AID489009, AID489017]; assay type: functional
[3] = molecular target: Sphingosine 1-phosphate receptor 2 (Homo sapiens, UniProt O95136); test: Late stage counterscreen assay for S1P4 antagonists: Fluorescence dose response cell-based screening assay for antagonists of the Sphingosine 1-Phosphate Receptor 2 (S1P2). [Related pubchem assays (depositor defined):AID1510, AID1524, AID1692, AID1853, AID2332, AID489009, AID489017]; assay type: functional
Sequence of Sphingosine 1-phosphate receptor 2 (O95136 whole entry): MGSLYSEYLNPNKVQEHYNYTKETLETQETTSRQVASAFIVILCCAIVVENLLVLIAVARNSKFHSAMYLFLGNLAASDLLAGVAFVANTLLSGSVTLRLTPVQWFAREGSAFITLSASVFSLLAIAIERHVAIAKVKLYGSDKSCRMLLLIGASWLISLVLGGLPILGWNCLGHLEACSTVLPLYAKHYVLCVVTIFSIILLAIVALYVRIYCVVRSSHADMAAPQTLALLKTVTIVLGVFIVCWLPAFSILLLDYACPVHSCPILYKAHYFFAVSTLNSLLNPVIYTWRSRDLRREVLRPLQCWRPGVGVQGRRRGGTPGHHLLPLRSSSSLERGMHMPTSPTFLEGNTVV

[4] = molecular target: Sphingosine 1-phosphate receptor 1 (Homo sapiens, UniProt P21453); test: Late stage counterscreen assay for S1P4 antagonists: Fluorescence dose response cell-based screening assay for antagonists of the Sphingosine 1-Phosphate Receptor 1 (S1P1). [Related pubchem assays (depositor defined):AID1510, AID1524, AID1692, AID1853, AID2332, AID489009, AID489017]; assay type: functional
Sequence of Sphingosine 1-phosphate receptor 1 (P21453 whole entry): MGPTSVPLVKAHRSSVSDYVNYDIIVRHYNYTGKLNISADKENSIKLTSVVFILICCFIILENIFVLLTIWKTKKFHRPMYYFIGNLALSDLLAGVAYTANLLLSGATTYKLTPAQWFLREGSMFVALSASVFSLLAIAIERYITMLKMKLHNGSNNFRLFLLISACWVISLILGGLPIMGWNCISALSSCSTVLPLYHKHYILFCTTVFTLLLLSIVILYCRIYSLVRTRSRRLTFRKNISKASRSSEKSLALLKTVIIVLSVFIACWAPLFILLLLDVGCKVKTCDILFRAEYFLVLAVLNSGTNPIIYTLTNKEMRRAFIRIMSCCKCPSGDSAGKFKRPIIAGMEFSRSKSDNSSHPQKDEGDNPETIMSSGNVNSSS

[5] = molecular target: T1, Tyrosine-protein phosphatase non-receptor type 22 (Homo sapiens, UniProt Q9Y2R2); assay type: functional
T1 sequence (Q9Y2R2 whole entry): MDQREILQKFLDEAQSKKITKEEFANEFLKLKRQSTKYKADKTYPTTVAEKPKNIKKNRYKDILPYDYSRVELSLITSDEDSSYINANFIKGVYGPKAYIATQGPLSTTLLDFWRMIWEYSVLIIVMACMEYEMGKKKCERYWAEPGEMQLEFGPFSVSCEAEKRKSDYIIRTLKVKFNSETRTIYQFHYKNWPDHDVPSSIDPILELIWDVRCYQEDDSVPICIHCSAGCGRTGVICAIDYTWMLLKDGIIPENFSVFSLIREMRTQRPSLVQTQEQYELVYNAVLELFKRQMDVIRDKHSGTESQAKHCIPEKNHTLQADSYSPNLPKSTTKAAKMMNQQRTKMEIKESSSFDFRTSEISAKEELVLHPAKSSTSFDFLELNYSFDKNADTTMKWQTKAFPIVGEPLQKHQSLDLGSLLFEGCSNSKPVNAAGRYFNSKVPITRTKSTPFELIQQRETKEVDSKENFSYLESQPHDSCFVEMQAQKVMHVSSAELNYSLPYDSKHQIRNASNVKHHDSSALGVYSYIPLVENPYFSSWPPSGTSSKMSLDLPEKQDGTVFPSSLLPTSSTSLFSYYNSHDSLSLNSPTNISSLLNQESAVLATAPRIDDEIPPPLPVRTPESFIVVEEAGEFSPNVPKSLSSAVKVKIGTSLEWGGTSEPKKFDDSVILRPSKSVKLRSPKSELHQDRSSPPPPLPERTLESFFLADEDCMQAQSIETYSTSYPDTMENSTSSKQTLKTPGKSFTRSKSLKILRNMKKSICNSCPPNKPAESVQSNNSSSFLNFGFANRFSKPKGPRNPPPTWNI

[6] = molecular target: T1, Tyrosine-protein phosphatase non-receptor type 22; assay type: functional; remark: listed apart in the source
[7] = molecular target: DNA dC->dU-editing enzyme APOBEC-3G (Homo sapiens, UniProt Q9HC16); test: Dose Response confirmation of small molecule APOBEC3G DNA Deaminase Inhibitors via a fluorescence-based single-stranded DNA deaminase assay. [Related pubchem assays (depositor defined):AID493012, AID493028]; assay type: functional
[8] = molecular target: T2, Voltage-gated N-type calcium channel alpha-1B subunit/Amyloid beta A4 precursor protein-binding family A member 1 (Homo sapiens, UniProt Q00975+Q02410); assay type: protein assay
T2 sequence (Q00975 whole entry): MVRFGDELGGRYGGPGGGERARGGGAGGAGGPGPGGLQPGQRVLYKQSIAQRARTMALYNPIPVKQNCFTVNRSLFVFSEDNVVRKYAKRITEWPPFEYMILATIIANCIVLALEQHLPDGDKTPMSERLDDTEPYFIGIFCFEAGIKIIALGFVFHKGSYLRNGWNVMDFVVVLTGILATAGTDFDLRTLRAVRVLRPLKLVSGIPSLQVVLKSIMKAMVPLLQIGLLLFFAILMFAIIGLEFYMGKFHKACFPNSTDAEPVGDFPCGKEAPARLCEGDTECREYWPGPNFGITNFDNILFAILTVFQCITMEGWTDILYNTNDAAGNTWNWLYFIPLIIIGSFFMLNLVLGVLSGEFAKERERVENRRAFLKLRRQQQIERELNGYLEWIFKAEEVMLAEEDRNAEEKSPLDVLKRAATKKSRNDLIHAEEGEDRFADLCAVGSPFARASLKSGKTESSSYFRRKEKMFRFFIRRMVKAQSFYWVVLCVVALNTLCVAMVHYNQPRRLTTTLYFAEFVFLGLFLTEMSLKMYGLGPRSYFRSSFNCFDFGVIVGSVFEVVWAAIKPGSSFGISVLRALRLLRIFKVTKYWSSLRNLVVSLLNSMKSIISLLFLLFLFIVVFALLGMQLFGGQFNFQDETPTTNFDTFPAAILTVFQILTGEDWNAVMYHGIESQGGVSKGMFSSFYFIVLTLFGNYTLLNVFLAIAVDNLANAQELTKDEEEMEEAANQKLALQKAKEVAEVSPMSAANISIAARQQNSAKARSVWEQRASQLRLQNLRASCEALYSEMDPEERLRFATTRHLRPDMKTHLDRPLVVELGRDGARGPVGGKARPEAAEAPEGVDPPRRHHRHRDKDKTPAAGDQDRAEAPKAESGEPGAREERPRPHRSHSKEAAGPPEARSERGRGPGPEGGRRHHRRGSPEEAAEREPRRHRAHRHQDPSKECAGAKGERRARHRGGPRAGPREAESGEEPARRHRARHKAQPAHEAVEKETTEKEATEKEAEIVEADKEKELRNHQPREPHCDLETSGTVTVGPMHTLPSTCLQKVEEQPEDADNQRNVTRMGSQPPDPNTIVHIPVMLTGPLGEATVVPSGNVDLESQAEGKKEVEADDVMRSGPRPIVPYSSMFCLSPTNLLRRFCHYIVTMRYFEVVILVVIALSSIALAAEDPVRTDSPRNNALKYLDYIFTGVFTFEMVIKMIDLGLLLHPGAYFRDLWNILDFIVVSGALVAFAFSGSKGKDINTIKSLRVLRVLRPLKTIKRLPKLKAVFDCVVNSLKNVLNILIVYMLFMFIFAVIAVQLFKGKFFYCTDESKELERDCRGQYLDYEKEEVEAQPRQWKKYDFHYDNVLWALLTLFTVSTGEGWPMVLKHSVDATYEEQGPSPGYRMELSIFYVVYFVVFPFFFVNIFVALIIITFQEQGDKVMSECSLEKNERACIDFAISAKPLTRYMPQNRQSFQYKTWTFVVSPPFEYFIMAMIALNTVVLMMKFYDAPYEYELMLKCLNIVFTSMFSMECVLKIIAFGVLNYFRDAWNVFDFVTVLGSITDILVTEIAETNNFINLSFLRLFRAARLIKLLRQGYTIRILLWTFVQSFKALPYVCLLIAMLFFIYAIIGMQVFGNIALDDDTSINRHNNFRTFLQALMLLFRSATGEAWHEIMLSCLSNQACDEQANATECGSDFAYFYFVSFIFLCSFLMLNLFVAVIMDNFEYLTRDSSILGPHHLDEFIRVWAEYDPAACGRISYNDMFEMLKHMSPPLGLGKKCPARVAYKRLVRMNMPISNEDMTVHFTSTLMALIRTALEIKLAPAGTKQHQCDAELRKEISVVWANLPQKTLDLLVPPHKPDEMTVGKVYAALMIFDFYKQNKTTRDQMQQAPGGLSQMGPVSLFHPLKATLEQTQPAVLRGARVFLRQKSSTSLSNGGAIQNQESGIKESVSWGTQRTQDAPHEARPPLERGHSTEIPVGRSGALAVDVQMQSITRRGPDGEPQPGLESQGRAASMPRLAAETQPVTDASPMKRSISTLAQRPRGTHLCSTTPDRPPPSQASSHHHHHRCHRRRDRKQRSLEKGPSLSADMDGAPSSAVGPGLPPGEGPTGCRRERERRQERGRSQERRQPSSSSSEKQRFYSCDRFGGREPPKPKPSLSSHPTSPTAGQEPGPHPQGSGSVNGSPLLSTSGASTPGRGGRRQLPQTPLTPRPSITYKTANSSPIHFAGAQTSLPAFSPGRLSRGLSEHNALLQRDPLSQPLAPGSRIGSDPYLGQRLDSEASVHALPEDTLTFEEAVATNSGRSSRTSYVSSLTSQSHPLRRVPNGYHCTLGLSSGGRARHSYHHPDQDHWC
T2 sequence (Q02410 whole entry): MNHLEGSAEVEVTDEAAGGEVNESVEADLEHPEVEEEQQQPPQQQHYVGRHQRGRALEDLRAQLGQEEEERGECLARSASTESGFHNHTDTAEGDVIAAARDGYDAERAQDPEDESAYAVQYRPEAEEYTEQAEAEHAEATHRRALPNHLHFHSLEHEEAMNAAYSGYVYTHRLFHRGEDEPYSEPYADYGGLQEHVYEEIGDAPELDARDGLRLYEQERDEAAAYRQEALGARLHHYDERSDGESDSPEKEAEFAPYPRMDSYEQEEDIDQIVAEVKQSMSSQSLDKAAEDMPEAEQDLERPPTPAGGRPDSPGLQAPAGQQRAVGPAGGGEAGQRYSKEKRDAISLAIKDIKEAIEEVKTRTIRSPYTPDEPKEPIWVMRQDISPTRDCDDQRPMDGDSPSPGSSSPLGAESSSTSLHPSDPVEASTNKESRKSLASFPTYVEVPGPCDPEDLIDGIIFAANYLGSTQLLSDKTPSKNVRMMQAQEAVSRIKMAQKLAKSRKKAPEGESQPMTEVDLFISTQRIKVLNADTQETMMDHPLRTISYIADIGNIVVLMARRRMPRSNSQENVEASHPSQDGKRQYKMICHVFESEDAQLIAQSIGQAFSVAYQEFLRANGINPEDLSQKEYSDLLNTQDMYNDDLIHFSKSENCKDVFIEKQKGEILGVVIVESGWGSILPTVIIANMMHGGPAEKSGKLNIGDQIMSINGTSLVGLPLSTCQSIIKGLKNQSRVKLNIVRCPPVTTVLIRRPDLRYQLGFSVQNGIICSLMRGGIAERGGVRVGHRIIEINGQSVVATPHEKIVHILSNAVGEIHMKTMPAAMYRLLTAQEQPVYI

[9] = molecular target: T2, Voltage-gated N-type calcium channel alpha-1B subunit/Amyloid beta A4 precursor protein-binding family A member 1; assay type: protein assay; remark: listed apart in the source
[10] = molecular target: T3, Tyrosine-protein phosphatase non-receptor type 7 (Homo sapiens, UniProt P35236); assay type: functional
T3 sequence (P35236 whole entry): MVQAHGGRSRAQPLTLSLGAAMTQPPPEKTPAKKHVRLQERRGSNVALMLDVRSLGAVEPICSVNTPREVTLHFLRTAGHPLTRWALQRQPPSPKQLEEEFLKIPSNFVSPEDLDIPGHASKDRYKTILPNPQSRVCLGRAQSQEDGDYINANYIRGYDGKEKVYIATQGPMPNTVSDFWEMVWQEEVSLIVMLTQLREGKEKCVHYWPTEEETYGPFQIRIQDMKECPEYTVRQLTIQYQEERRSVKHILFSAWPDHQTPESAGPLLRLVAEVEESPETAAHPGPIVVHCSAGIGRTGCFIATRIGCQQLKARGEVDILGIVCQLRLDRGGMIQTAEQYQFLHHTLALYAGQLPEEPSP

- IC50 (SUMO E1/E2): 28.7 µM (active)
SMILES: O=C1c2oc3ccccc3c(=O)c2C(c2ccc(O)cc2)N1c1nccs1 (stereo unspecified)

- IC50 [1]: > 25 µM (inactive)
- IC50 [2]: > 25 µM (inactive)
- IC50 [3]: > 25 µM (inactive)
- IC50 [4]: > 25 µM (inactive)
SMILES: Cc1ccc2ccccc2c1NC(=O)c1ccc(-c2cc(Cl)ccc2Cl)o1

SMILES: COc1ccc(NC(=O)CN2C(=O)/C(=C3\SC(=S)N(CCC(=O)O)C3=O)c3ccccc32)cc1
- IC50 [5]: 13.8 µM (active)
- IC50 [6]: 6.11 µM (active)
- IC50 [7]: 40.9 µM (active)
- IC50 [8]: > 50 µM (inactive)
- IC50 [9]: 14.5 µM (active)
- IC50 [10]: 6.84 µM (active)
